Source: patent US8153773B2, “Synthesis and use of anti-reverse phosphorothioate analogs of the messenger RNA cap” (Board of Supervisors of Louisiana State University and …, priority 2007, dated 2012)

What was measured:
hDcp2 [1] = target: T1, hDcp2 (Homo sapiens, UniProt Q8IU60); test: In vitro RNA decapping assay with recombinant hDcp2; assay type: biochemical; settings: capped 32P-labeled short RNA, recombinant hDcp2, anion exchange HPLC (FIG. 6)
Description: Dcp2 activity was measured with capped 48-nt oligonucleotides as substrates, a truncated form of luciferase mRNA (48 nucleotides). GST-hDcp2 was expressed in Escherichia coli and purified as described by Z. Wang et al., “The hDcp2 protein is a mammalian mRNA decapping enzyme,” Proc. Natl. Acad. Sci. U.S.A., vol. 99, pp. 12663-12668 (2002). Capped oligonucleotides were first subjected to digestion with GST-hDcp2 at 37° C. for 2 h in decapping buffer (10 mM Tris-HCl, pH 7.5, 100 mM potassium acetate, 2 mM magnesium acetate, 0.5 mM MnCl2, 2 mM dithiothreitol, and 0.1 mM spermine). See C. Piccirillo et al., “Functional characterization of the mammalian mRNA decapping enzyme hDcp2,” RNA, vol. 9, pp. 1138-1147 (2003). The reaction mixture was then extracted once with an equal volume of phenol and twice with chloroform, and RNA was precipitated with ethanol. Products of the decapping reaction were further digested with a cocktail of ribonucleases (RiboShredder; Epicentre) at 37° C. for 1 h. The products were resolved by anion-exchange HPLC on a 4.6×250-mm Partisil 10SAX/25 column (Whatman). The gradient consisted of water for 1 min, a linear gradient to 112 mM KH2PO4, pH 4.5, for 20 min, a linear gradient of 112-450 mM KH2PO4 for 15 min, a linear gradient of 450 mM to 1.5 M KH2PO4 for 15 min, and isocratic elution at 1.5 M of KH2PO4 for 9 min, all at a flow rate 1 ml/min.
We tested oligonucleotides capped with either of S-ARCAs for hydrolysis by recombinant hDcp2 to test whether mRNA capped with the various diastereomers of m2^7,2′-OGpppsG and m2^7,2′-OGppspG would differ in their sensitivity to cleavage by Dcp1/Dcp2. See generally Z. Wang et al., “The hDcp2 protein is a mammalian mRNA decapping enzyme,” Proc. Natl. Acad. Sci. U.S.A., vol. 99, pp. 12663-12668 (2002), and Z. Wang et al., “An mRNA Stability Complex Functions with Poly(A)-Binding Protein To Stabilize mRNA In Vitro”, Mol. Cell. Biol., vol. 19, pp. 4552-4560 (1999). Cap analogs used were initially unlabeled, so to follow the products of the digestion reaction we synthesized capped oligonucleotides in the presence of [α-^32P]GTP and a DNA template in which G was the first ribonucleotide specified after the promoter. The oligonucleotides capped with either of the S-ARCAs were subjected to Dcp2 digestion in vitro, after which the products were further digested with a cocktail of ribonucleases (RiboShredder from Epicenter). Any nucleotide on the 5′ side of a G residue acquired a ^32P-labeled 3′-phosphate group after ribonuclease digestion by nearest-neighbor transfer. Anion exchange chromatography was then used to resolve the labeled 3′-nucleoside monophosphates (3′-NMP*), at internal positions in the RNA, from labeled 5′-terminal products (FIG. 6). The latter comprise p3 Gp* derived from uncapped transcripts and m2^7,2′-OGp3 Gp* (when m2^7,2′-OGp3G was used), or pGp* resulting from capped RNA resistant or nonresistant to enzymatic cleavage, respectively. All cap analogs used were ARCAs, which ensured that they were incorporated into RNA exclusively in the correct orientation. This further guaranteed that only one 5′-terminal product (m2^7,2′-OGp3 Gp*) was observed upon ribonuclease treatment. Uncapped RNA is not a substrate for Dcp2, which explains why p3 Gp* product was observed after Dcp2 digestion.
See E. Grudzien et al., “Differential inhibition of mRNA degradation pathways by novel cap analogs,” J. Biol. Chem., vol. 281, pp. 1857-1867 (2006).

hDcp2 [2] = target: T1, hDcp2; settings: Grudzien et al. 2006; cited from earlier work
DcpS [3] = target: T2, DcpS (Caenorhabditis elegans, UniProt G5EFS4); test: Enzymatic hydrolysis by C. elegans DcpS; assay type: biochemical; parameters: key: the analogs assigned as resistant remained completely undigested under the applied conditions; the analogs assigned as hydrolyzed were hydrolyzed by DcpS with efficiency comparable to the respective unmodified parent compound; settings: conditions giving complete degradation of unmodified parent within 40-90 min, RP HPLC
T2 sequence (G5EFS4 1-311): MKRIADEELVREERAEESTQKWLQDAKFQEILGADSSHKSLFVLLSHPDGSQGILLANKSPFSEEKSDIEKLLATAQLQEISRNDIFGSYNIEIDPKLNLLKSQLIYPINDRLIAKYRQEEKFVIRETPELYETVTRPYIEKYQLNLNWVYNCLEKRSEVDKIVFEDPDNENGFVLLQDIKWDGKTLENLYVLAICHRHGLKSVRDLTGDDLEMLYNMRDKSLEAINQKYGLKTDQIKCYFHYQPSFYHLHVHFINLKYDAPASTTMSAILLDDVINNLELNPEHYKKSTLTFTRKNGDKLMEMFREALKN
Description: (§1) Human and nematode DcpS were expressed in Escherichia coli according to the procedures described previously (L. S. Cohen et al., “Nematode m7 GpppG and m3(2,2,7)GpppG decapping: activities in Ascaris embryos and characterization of C. elegans scavenger DcpS,” RNA, vol. 10, pp. 1609-1624 (2004)). Both proteins were stored at −80° C. in 20 mM Tris buffer, pH 7.5, containing 50 mM KCl, 0.2 mM EDTA, 1 mM DTT, 0.5 mM PMSF, and 20% glycerol. An appropriate cap analog at 1 mM concentration was treated with 5.0 or 7.0 μl of DcpS (from human or C. elegans, respectively) in 500 μl of 50 mM TRIS buffer, pH=7.9, containing 20 mM of MgCl2 and 60 mM of (NH4)2SO4 at 37° C. for 60-90 min. Every 15-20 min a 100 μl sample was collected from the reaction mixture and deactivated by incubation in 90° C. for 3 min. Collected samples were analyzed without further treatment by analytical RP HPLC using a linear gradient of methanol in 0.1 M KH2PO4, pH=6.0, from 0-50% within 15 min and UV-detection at 260 nm.
(§2) The new series of S-analogs were subjected to in vitro enzymatic hydrolysis catalyzed by DcpS from both human and C. elegans sources. In all experiments, the corresponding unmodified cap analog was used as a positive control, i.e., m^7GpppG for non-ARCA S-analogs and m2^7,2′-OGpppG for S-ARCAs. The amount of DcpS enzyme was optimized to provide complete degradation of the control substrate within 40-90 min. The samples collected from reaction mixtures at various time intervals were analyzed by RP HPLC (as described in Materials and Methods).
(§3) In Table 4, cap analogs at 4 μM concentration were subjected to enzymatic digestion by DcpS in conditions leading to complete degradation of the unmodified parent compound (i.e. m^7GpppG for non-ARCA S-analogs and m2^7,2′-OGpppG for ARCAs) within 40-90 min. Samples collected from reaction mixtures at various time intervals were analysed by RP HPLC with UV detection at 260 nm as described in Materials and Methods. […] The result was unchanged even if the reaction time was extended to 24 h, various amounts of enzyme were used, and composition of the reaction buffer was modified.

murine eIF4E (28-217) = target: T3, murine eIF4E (28-217) (Mus musculus, UniProt P63073); test: Binding affinities for eIF4E by fluorescence quenching; settings: murine eIF4E (28-217)
T3 construct: (28-217) to phosphorothioate cap analogs, as determined
Description: Binding affinities of S analogs for murine eIF4E were determined by fluorescence quenching. Fluorescence titration measurements were carried out on an LS-50B spectrofluorometer (Perkin Elmer Co.) in 50 mM HEPES/KOH (pH 7.2), 100 mM KCl, 0.5 mM EDTA, 1 mM DTT at 20.0±0.2° C. Aliquots of 1 μl increasing concentration of cap analogue solutions were added to 1.4 ml of […] solutions. Fluorescence intensities (excitation at 280 nm with 2.5 nm bandwidth and detection at 337 nm with 4 nm bandwidth and 290 nm cut-off filter) were corrected taking into account sample dilution and the inner filter effect. Equilibrium association constants (KAS) were determined by fitting the theoretical dependence of the fluorescence intensity on the total concentration of cap analogue to the experimental data points according to equation described previously (See A. Niedzwiecka et al., “Biophysical studies of eIF4E cap-binding protein: recognition of mRNA 5′ cap structure and synthetic fragments of eIF4G and 4E-BP1 proteins,” J. Mol. Biol., vol. 319, pp. 615-635 (2002)). The concentration of protein was fitted as a free parameter of equilibrium equation showing amount of “active” protein. The final KAS was calculated as a weighted average of three to ten independent titrations, with the weights taken as the reciprocals of the numerical standard deviations squared. Numerical nonlinear least-squares regression analysis was performed using ORGIN 6.0 (Microcal Software Inc., USA). The Gibbs free energy of binding was calculated from the KAS value according to the standard equation ΔG°=−RTlnKAS.

HC11 cells = test: Translational efficiency of capped luciferase mRNA in HC11 cells; assay type: cell-based, mouse; settings: Luc-A60 mRNA capped with the analog in HC11 cells, relative to m^7Gp3G-capped mRNA
Description: Two methods, electroporation and nucleoporation, were used to deliver RNA into cells. In case of electroporation, 5 μg of RNA were introduced into 10^7 HC11 cells in a total volume 400 μl of serum-reduced RPMI 1640 medium in a Gene pulser cuvette (4 mm gap) with a Bio-Rad Genepulser™ set at 0.22 kV and 960 μF. Following discharge, the cells were washed twice with PBS, centrifuged for 2 min 300×g at room temperature, resuspended in prewarmed complete medium, and placed at 37° C. Nucleoporation was performed with an Amaxa Nucleofector II (Amaxa Biosystems) in accordance with manufacture's recommendations. One microgram of RNA was introduced into 10^6 HC11 cells with Nucleofector Solution V and the set of recommended regimens (program T-024).
For measurement of translational efficiency, cells were divided into several Eppendorf tubes, placed in a water bath at 37° C., and shaken. For measurement of mRNA stability, cells were distributed into 35-mm cell culture dishes and placed at 37° C. in a 5% CO2 humidified atmosphere. Cells were harvested at various times and washed twice with PBS.
For cytoplasmic RNA extraction, 2×10^5 cells were lysed in 175 μl of lysis buffer (50 mM Tris-HCl, pH 8.0, 140 mM NaCl, 1.5 mM MgCl2, 0.5% (v/v) Igepal (Sigma), and 1 mM dithiothreitol). RNAs were further purified using the RNeasy mini kit. For protein extraction, 2×10^5 cells were lysed in 200 μl of Luciferase Cell Culture Lysis Reagent (Promega). Luciferase activity of cell extracts was measured according to the manufacturer's protocol (Promega).
We also determined the translational efficiency in cultured cells for luciferase mRNA capped with S-ARCAs. This involved two measurements conducted at various times following nucleoporation—luciferase activity measured by luminometry in cleared cell lysates, and Luc-A60 levels measured by real-time PCR. Luciferase activity was normalized by the amount of luciferase mRNA that had been delivered into cells. To determine the amount of RNA present in the cells at a time immediately after nucleoporation, i.e., before any decay had occurred, cells were harvested at various times between 2 to 8 h post-nucleoporation, and cytoplasmic RNA was extracted. The amount of luciferase mRNA was measured by real time PCR using primers that amplify sequences near the 5′-end. Luciferase mRNA remaining at each time point was plotted as log10 ([RNA]) versus time to determine t1/2. The curve was extrapolated to 0 h, and the amount of RNA delivered into the cells was calculated. We defined conditions under which the accumulation of luciferase was linear with time, after an initial lag period of ˜30 min for recruitment of mRNA to ribosomes, completing the first polypeptide chain, and release of luciferase into the cytosol.

DcpS [4] = target: T4, DcpS (Homo sapiens, UniProt Q96C86); test: Enzymatic hydrolysis by human DcpS; assay type: biochemical; parameters: key: the analogs assigned as resistant remained completely undigested under the applied conditions; the analogs assigned as hydrolyzed were hydrolyzed by DcpS with efficiency comparable to the respective unmodified parent compound; settings: conditions giving complete degradation of unmodified parent within 40-90 min, RP HPLC
T4 sequence (Q96C86 1-337): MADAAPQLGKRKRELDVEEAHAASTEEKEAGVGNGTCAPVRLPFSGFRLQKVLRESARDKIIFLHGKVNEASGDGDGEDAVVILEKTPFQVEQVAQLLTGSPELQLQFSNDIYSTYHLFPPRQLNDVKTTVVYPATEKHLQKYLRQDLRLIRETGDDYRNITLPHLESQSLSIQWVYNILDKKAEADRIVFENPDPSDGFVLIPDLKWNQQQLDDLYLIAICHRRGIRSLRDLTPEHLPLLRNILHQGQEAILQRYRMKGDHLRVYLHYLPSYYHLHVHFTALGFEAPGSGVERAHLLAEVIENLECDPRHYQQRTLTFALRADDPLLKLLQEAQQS
Description: as §1, §2, §3

T3 sequence (P63073 28-217): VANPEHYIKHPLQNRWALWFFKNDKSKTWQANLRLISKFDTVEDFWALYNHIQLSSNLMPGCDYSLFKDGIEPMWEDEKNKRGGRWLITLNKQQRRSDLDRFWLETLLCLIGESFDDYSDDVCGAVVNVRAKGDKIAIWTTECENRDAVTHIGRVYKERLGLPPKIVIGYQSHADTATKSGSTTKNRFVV

CO[C@H]1[C@@H](O)[C@H](n2c[n+](C)c3c(=O)[nH]c(N)nc32)O[C@@H]1COP(=O)(O)OP(=O)(O)CP(=O)(O)OC[C@H]1O[C@@H](n2cnc3c(=O)[nH]c(N)nc32)[C@H](O)[C@@H]1O [m2^7,3′-OGppCH2pG, reference compound]
hydrolysis of capped oligonucleotide by hDcp2 (hDcp2 [1]): resistant | hydrolysis of capped mRNA by recombinant human Dcp2 in vitro (hDcp2 [2]): resistant to hydrolysis

Cn1c[n+]([C@@H]2O[C@H](COP(=O)(O)OP(=O)([O-])OP(=O)(O)OC[C@H]3O[C@@H](n4cnc5c(=O)[nH]c(N)nc54)[C@H](O)[C@@H]3O)[C@@H](O)[C@H]2O)c2nc(N)[nH]c(=O)c21 [m^7GpppG, reference compound]
Resistance to enzymatic hydrolysis by DcpS (from C. elegans) (DcpS [3]): hydrolyzed | ΔG° (murine eIF4E (28-217); binding free energy calculated from KAS): -39.1 ± 0.084 kJ/mol | KAS (murine eIF4E (28-217); equilibrium association constant, fluorescence quenching): 9.4 ± 0.4 µM⁻¹ | Relative translational efficiency (HC11 cells): 1.00 | Resistance to enzymatic hydrolysis by DcpS (human) (DcpS [4]): hydrolyzed
